In one data set the test system is C57BL/6J mice. As to the kind of experiment: Glucokinase activator in vivo screen (blood glucose after oral dosing). Conditions: administered orally, 50 mg/kg, C57BL/6J mice fasted two hours; decrease in blood glucose compared to vehicle over six hours (Example B). On the procedure: Glucokinase Activator In Vivo Screen Protocol
C57BL/6J mice are orally dosed via gavage with Glucokinase (GK) activator at 50 mg/kg body weight following a two hour fasting period. Blood glucose determinations are made five times during the six hour post-dose study period. Mice (n=6) are weighed and fasted for a two hour period prior to oral treatment.

In the case of `Cc1csc(NC(=O)[C@H](CC2CCCC2)c2ccc(S(C)(=O)=O)cc2)n1` [Example 128, 3-Cyclopentyl-2(R)-(4-methanesulfonyl-phenyl)-N-(4-methyl-thiazol-2-yl)-propionamide], the melting point – broadly, the temperature, or range, at which the solid turns liquid – fell in the range of 83 to 87 °C. Moreover, the “glucokinase activator in vivo activity” value in the data set with C57BL/6J mice is given as “excellent glucokinase activator in vivo activity”.

The compound `Cc1cnc(NC(=O)[C@H](CC2CCCC2)c2ccc(S(C)(=O)=O)cc2)s1` [Example 129, 3-Cyclopentyl-2(R)-(4-methanesulfonyl-phenyl)-N-(5-methyl-thiazol-2-yl)-propionamide] registered a melting point of 81 to 85 °C. In the data set with C57BL/6J mice, the “glucokinase activator in vivo activity” value is “excellent glucokinase activator in vivo activity”.

The compound `CS(=O)(=O)c1ccc(C(CC2CCCC2)C(=O)Nc2ncc(Cl)s2)cc1` (stereo not shown) [Example 130, N-(5-Chloro-thiazol-2-yl)-3-cyclopentyl-2-(4-methanesulfonyl-phenyl)-propionamide] had a melting point of 76 to 79 °C. In addition, the “glucokinase activator in vivo activity” value with C57BL/6J mice is “excellent glucokinase activator in vivo activity”.

The compound `CS(=O)(=O)c1ccc([C@@H](CC2CCCC2)C(=O)Nc2ncc(Cl)s2)cc1` [Example 131, N-(5-Chloro-thiazol-2-yl)-3-cyclopentyl-2(R)-(4-methanesulfonyl-phenyl)-propionamide] gave a melting point of 83 to 88 °C. Further, in the data set on C57BL/6J mice, the “glucokinase activator in vivo activity” value is “excellent glucokinase activator in vivo activity”.

`CS(=O)(=O)c1ccc([C@@H](CC2CCCC2)C(=O)Nc2ccncn2)cc1C(F)(F)F` [Example 157(A), 3-Cyclopentyl-2(R)-(4-methanesulfonyl-3-trifluoromethyl-phenyl)-N-pyrimidin-4-yl-propionamide]: the melting point is 85 to 90 °C. Besides, the “glucokinase activator in vivo activity” value with C57BL/6J mice is listed as “excellent glucokinase activator in vivo activity”.

For the origin of these results see patent US6610846B1, “Heteroaromatic glucokinase activators” (Hoffman-La Roche Inc., priority 1999, dated 2003).
